For 19 molecules, EC50 results are on record in patent publication US8791108B2, “Inhibitors of human immunodeficiency virus replication” (priority 2011, dated 2014).

One experiment relates to recombinant NL-Rluc virus. The experiment in a line: Inhibition of HIV replication (NL-RLuc luciferase reporter virus, MT-2 cells). Particulars: Human immunodeficiency virus 1, MT2, 120 h, read-out: Activity. The experiment is classed as cell-based. (In general: A reporter such as luciferase makes a cellular process visible.)
On to `Cc1ccccc1CN(C)C(=O)c1cc2nc(C)c([C@H](OC(C)(C)C)C(=O)O)c(-c3cc(F)c4c(c3C)CCCO4)n2n1` [Example 19, (2S)-2-(tert-butoxy)-2-(7-(8-fluoro-5-methylchroman-6-yl)-5-methyl-2-(methyl(2-methylbenzyl)carbamoyl)pyrazolo[1,5-a]pyrimidin-6-yl)acetic acid], for which the EC50 is less than 0.1 µM. Take `Cc1nc2cc(C(=O)NCCOC(C)C)nn2c(-c2cc(F)c3c(c2C)CCCO3)c1[C@H](OC(C)(C)C)C(=O)O` [Example 102, (2S)-2-(tert-butoxy)-2-(7-(8-fluoro-5-methylchroman-6-yl)-2-((2-isopropoxyethyl)carbamoyl)-5-methylpyrazolo[1,5-a]pyrimidin-6-yl)acetic acid]: the EC50 was less than 0.1 µM. Still for that read-out and setting: to `Cc1nc2cc(C(=O)NCc3ncc(F)cc3F)nn2c(-c2cc(F)c3c(c2C)CCCO3)c1[C@H](OC(C)(C)C)C(=O)O` [Example 36, (2S)-2-(tert-butoxy)-2-(2-(((3,5-difluoropyridin-2-yl)methyl)carbamoyl)-7-(8-fluoro-5-methylchroman-6-yl)-5-methylpyrazolo[1,5-a]pyrimidin-6-yl)acetic acid] belongs 0.1 to 1 µM; to `Cc1nc2cc(C(=O)NCc3cccc(-c4ccccc4)c3)nn2c(-c2cc(F)c3c(c2C)CCCO3)c1[C@H](OC(C)(C)C)C(=O)O` [Example 69, (2S)-2-(2-(([1,1′-biphenyl]-3-ylmethyl)carbamoyl)-7-(8-fluoro-5-methylchroman-6-yl)-5-methylpyrazolo[1,5-a]pyrimidin-6-yl)-2-(tert-butoxy)acetic acid], less than 0.1 µM. `Cc1nc2cc(C(=O)NCC3CCOCC3)nn2c(-c2cc(F)c3c(c2C)CCCO3)c1[C@H](OC(C)(C)C)C(=O)O` [Example 101, (2S)-2-(tert-butoxy)-2-(7-(8-fluoro-5-methylchroman-6-yl)-5-methyl-2-(((tetrahydro-2H-pyran-4-yl)methyl)carbamoyl)pyrazolo[1,5-a]pyrimidin-6-yl)acetic acid]: the EC50 was 0.1 to 1 µM.

In the case of `Cc1nc2cc(C(=O)NCc3ccc(F)cc3N3CCCC3=O)nn2c(-c2cc(F)c3c(c2C)CCCO3)c1[C@H](OC(C)(C)C)C(=O)O` [Example 12, (2S)-2-(tert-butoxy)-2-(2-((4-fluoro-2-(2-oxopyrrolidin-1-yl)benzyl)carbamoyl)-7-(8-fluoro-5-methylchroman-6-yl)-5-methylpyrazolo[1,5-a]pyrimidin-6-yl)acetic acid], the EC50 was greater than 1 µM.

With `Cc1ccc(CNC(=O)c2cc3nc(C)c([C@H](OC(C)(C)C)C(=O)O)c(-c4cc(F)c5c(c4C)CCCO5)n3n2)cc1F` [Example 60, (2S)-2-(tert-butoxy)-2-(2-((3-fluoro-4-methylbenzyl)carbamoyl)-7-(8-fluoro-5-methylchroman-6-yl)-5-methylpyrazolo[1,5-a]pyrimidin-6-yl)acetic acid], the EC50 is less than 0.1 µM. On to `Cc1nc2cc(C(=O)NC(C)c3ccccc3)nn2c(-c2cc(F)c3c(c2C)CCCO3)c1[C@H](OC(C)(C)C)C(=O)O` (stereo partly drawn) [Example 39], for which the EC50 is less than 0.1 µM. In the case of `Cc1nc2cc(C(=O)NCCc3cccc(Cl)c3)nn2c(-c2cc(F)c3c(c2C)CCCO3)c1[C@H](OC(C)(C)C)C(=O)O` [Example 81, (2S)-2-(tert-butoxy)-2-(2-((3-chlorophenethyl)carbamoyl)-7-(8-fluoro-5-methylchroman-6-yl)-5-methylpyrazolo[1,5-a]pyrimidin-6-yl)acetic acid], the EC50 is less than 0.1 µM. In the case of `Cc1nc2cc(C(=O)N3CCN(CCN4CCOCC4)CC3)nn2c(-c2cc(F)c3c(c2C)CCCO3)c1[C@H](OC(C)(C)C)C(=O)O` [Example 91, (2S)-2-(tert-butoxy)-2-(7-(8-fluoro-5-methylchroman-6-yl)-5-methyl-2-(4-(2-morpholinoethyl)piperazine-1-carbonyl)pyrazolo[1,5-a]pyrimidin-6-yl)acetic acid], the EC50 was greater than 1 µM.

As for `Cc1cc(CNC(=O)c2nn3c(-c4cc(F)c5c(c4C)CCCO5)c([C@H](OC(C)(C)C)C(=O)O)c(C)nc3c2Cl)ccc1F` [Example 140, (2S)-2-(tert-Butoxy)-2-(3-chloro-2-((4-fluoro-3-methylbenzyl)carbamoyl)-7-(8-fluoro-5-methylchroman-6-yl)-5-methylpyrazolo[1,5-a]pyrimidin-6-yl)acetic acid], the EC50 is less than 0.1 µM. Consider `CCCNC(=O)c1cc2nc(C)c([C@H](OC(C)(C)C)C(=O)O)c(-c3cc(F)c4c(c3C)CCCO4)n2n1` [Example 124, (2S)-2-(tert-butoxy)-2-(7-(8-fluoro-5-methylchroman-6-yl)-5-methyl-2-(propylcarbamoyl)pyrazolo[1,5-a]pyrimidin-6-yl)acetic acid], for which the EC50 was in the range of 0.1 to 1 µM. Consider `Cc1nc2cc(C(=O)NCc3cccc(Cl)c3)nn2c(-c2cc(F)c3c(c2C)CCCO3)c1[C@H](OC(C)(C)C)C(=O)O` [Example 54, (2S)-2-(tert-butoxy)-2-(2((3-chlorobenzyl)carbamoyl)-7-(8-fluoro-5-methylchroman-6-yl)-5-methylpyrazolo[1,5-a]pyrimidin-6-yl)acetic acid], for which the EC50 was less than 0.1 µM. As to `Cc1nc2cc(C(=O)NCc3ccc(C#N)cc3)nn2c(-c2cc(F)c3c(c2C)CCCO3)c1[C@H](OC(C)(C)C)C(=O)O` [Example 121, (2S)-2-(tert-butoxy)-2-(2-((4-cyanobenzyl)carbamoyl)-7-(8-fluoro-5-methylchroman-6-yl)-5-methylpyrazolo[1,5-a]pyrimidin-6-yl)acetic acid], the EC50 is 0.1 to 1 µM.

On to `Cc1nc2cc(C(=O)NCCN3CCCC3)nn2c(-c2cc(F)c3c(c2C)CCCO3)c1[C@H](OC(C)(C)C)C(=O)O` [Example 75, (2S)-2-(tert-butoxy)-2-(7-(8-fluoro-5-methylchroman-6-yl)-5-methyl-2-((2-(pyrrolidin-1-yl)ethyl)carbamoyl)pyrazolo[1,5-a]pyrimidin-6-yl)acetic acid], for which the EC50 is greater than 1 µM. Consider `Cc1nc2cc(C(=O)NCc3ccc(F)c(C(F)F)c3)nn2c(-c2cc(F)c3c(c2C)CCCO3)c1[C@H](OC(C)(C)C)C(=O)O` [Example 27], for which the EC50 was less than 0.1 µM.

On to `Cc1nc2cc(C(=O)N(C)Cc3ccccc3F)nn2c(-c2cc(F)c3c(c2C)CCCO3)c1[C@H](OC(C)(C)C)C(=O)O` [Example 22, (2S)-2-(tert-butoxy)-2-(7-(8-fluoro-5-methylchroman-6-yl)-2-((2-fluorobenzyl)(methyl)carbamoyl)-5-methylpyrazolo[1,5-a]pyrimidin-6-yl)acetic acid], for which the EC50 was less than 0.1 µM. With `Cc1nc2cc(C(=O)NCc3ccc(F)cc3-c3ncnn3C)nn2c(-c2cc(F)c3c(c2C)CCCO3)c1[C@H](OC(C)(C)C)C(=O)O` [Example 18, (2S)-2-(tert-butoxy)-2-(2-((4-fluoro-2-(1-methyl-1H-1,2,4-triazol-5-yl)benzyl)carbamoyl)-7-(8-fluoro-5-methylchroman-6-yl)-5-methylpyrazolo[1,5-a]pyrimidin-6-yl)acetic acid], the EC50 was in the range of 0.1 to 1 µM. On to `Cc1nc2cc(C(=O)N(Cc3ccccc3)C(C)C)nn2c(-c2cc(F)c3c(c2C)CCCO3)c1[C@H](OC(C)(C)C)C(=O)O` [Example 113, (2S)-2-(2-(benzyl(isopropyl)carbamoyl)-7-(8-fluoro-5-methylchroman-6-yl)-5-methylpyrazolo[1,5-a]pyrimidin-6-yl)-2-(tert-butoxy)acetic acid], for which the EC50 is less than 0.1 µM.

Still in this experiment, the particulars now being: Human immunodeficiency virus 1, MT2, 120 h, read-out: EC50 μM.
In the case of `Cc1nc2cc(C(=O)NCc3ncc(F)cc3F)nn2c(-c2cc(F)c3c(c2C)CCCO3)c1[C@H](OC(C)(C)C)C(=O)O` [Example 36, (2S)-2-(tert-butoxy)-2-(2-(((3,5-difluoropyridin-2-yl)methyl)carbamoyl)-7-(8-fluoro-5-methylchroman-6-yl)-5-methylpyrazolo[1,5-a]pyrimidin-6-yl)acetic acid], the EC50 was found to be 0.255 µM. For the molecule `Cc1nc2cc(C(=O)NCc3ccc(F)cc3-c3ncnn3C)nn2c(-c2cc(F)c3c(c2C)CCCO3)c1[C@H](OC(C)(C)C)C(=O)O` [Example 18, (2S)-2-(tert-butoxy)-2-(2-((4-fluoro-2-(1-methyl-1H-1,2,4-triazol-5-yl)benzyl)carbamoyl)-7-(8-fluoro-5-methylchroman-6-yl)-5-methylpyrazolo[1,5-a]pyrimidin-6-yl)acetic acid], the EC50 worked out at 0.547 µM.
